Data taken from the METLIN SMRT retention time set (Domingo-Almenara et al. 2019).

Experiment: gradient 5% acetonitrile 3 min, to 50% in 2 min, to 85% in 15 min, held 3 min, 100 µL/min
Settings: column: Zorbax Extend-C18 2.1 x 50 mm; eluents: water / acetonitrile, 0.1% formic acid
Summary of the method: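 The system's dead and dwell volumes were 40 μL and 900 μL, with a Zorbax Extend-C18 column (2.1 × 50 mm, 1.8 μm) run at 100 μL/min in water and acetonitrile containing 0.1% formic acid each. Pure standards were analyzed in mixtures of ~100 molecules by HPLC–quadrupole time-of-flight mass spectrometry in positive and negative ionization mode. Retention time was assigned from computationally picked, manually inspected adduct peaks.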

Structure (SMILES)	RP-LC retention time
COc1ccc(-c2cn3c(CC(=O)NCc4cccc(Br)c4)csc3n2)cc1	811 s
CN1C(=O)COc2cc(-c3noc(C(=O)N4CCCC4)n3)ccc21	746 s
O=C(CC(=O)Nc1ccc2nc3n(c(=O)c2c1)CCCCC3)Nc1ccc(F)cc1	705 s
O=S(=O)(c1ccc(-c2nnc(C3CC3)o2)o1)N1CCN(c2ccc(F)cc2)CC1	981 s
COc1nc2ccccc2nc1N1CCCC(C(=O)N2CCN(c3ccccc3Cl)CC2)C1 (configuration not stated)	1360 s
O=C(Nc1ccccc1F)C1CCc2nc(N3CCOCC3)ncc2C1 (configuration not stated)	778 s
O=S(=O)(c1ccc(-c2nnc(C3CCCC3)o2)o1)N1CCN(c2ccccn2)CC1	726 s
Cc1ccc(NC(=O)CNS(=O)(=O)c2cc(-c3noc(C)n3)sc2C)nc1	730 s
O=C(Nc1ccc(F)cc1F)N1CCN(c2cc(-c3ccncc3)[nH]n2)CC1	596 s
CCCS(=O)(=O)N1CCC(c2noc(-c3cccnc3)n2)C1 (configuration not stated)	730 s
Cc1oc(-c2[nH]ncc2C(=O)N2CCCC2)cc1S(=O)(=O)NC1CC1	620 s
COCC1(O)CCOC2(CCN(Cc3ccc(C#N)cc3)CC2)C1 (configuration not stated)	578 s
Cc1cc(C)cc(NC(=O)C2CCN(S(=O)(=O)c3ccc(-c4noc(C5CC5)n4)cc3)CC2)c1	838 s
Cc1ccccc1-n1c(=O)c2sccc2n(Cc2nc(-c3cccc(C(F)(F)F)c3)no2)c1=O	1100 s
Cc1nc(Oc2ccccc2)cc(N2CCN(C(=O)c3c(F)cccc3F)CC2)n1	785 s
COc1ccc(CNS(=O)(=O)c2cc(-c3nc(C(C)(C)C)cs3)cs2)cc1	1200 s
CCC1CCCCN1C(=O)c1cnc2nc(C)ccc2c1Nc1ccc2c(c1)OCCO2 (configuration not stated)	666 s
O=C(Nc1cccc(Cl)c1)c1c(O)c2cccnc2n(-c2ccc(F)cc2)c1=O	1320 s
Cc1ccc(NC(=O)CN2CCc3c(c(=O)c4cc(C)ccc4n3C)C2)cc1	649 s
CC(=O)N1CCc2cc(-c3ccc(C(=O)NCc4ccc5c(c4)OCO5)cc3)ccc21	824 s

Structure (SMILES)	RP-LC retention time
Cc1c(C)n(C(=O)CN2CCC(C(N)=O)CC2)c2ccccc12	614 s
CCn1cc(-c2ccc(Cl)cc2)cc1C(=O)NC(C)c1ccccn1 (configuration not stated)	843 s
Cc1ccc(-n2cc3c(N4CCCC(C(=O)NCc5ccc(OC(C)C)cc5)C4)ncnc3n2)cc1 (configuration not stated)	765 s
CC1CCC2(CC1)NC(=O)N(CC(=O)Nc1cccc(F)c1)C2=O (configuration not stated)	816 s
O=C(Nc1ccccc1F)C(=O)c1cn(CC(=O)N2CCCC2)c2ccccc12	974 s
Nc1cc(-c2cccc(F)c2)[nH]n1	608 s
O=C(NCc1ccco1)C1CCN(c2nnc(-c3ccccc3)o2)CC1	718 s
Cn1cnc(S(=O)(=O)NCCc2noc(-c3ccccc3)n2)c1	703 s
COc1ccc(-c2nc3cnccn3c2Nc2ccc(C)cc2C)cc1	971 s
O=C(Nc1nc(-c2ccc(Cl)c(Cl)c2)cs1)c1ccc(F)c(F)c1	1260 s
CCn1c(=O)c(C)nc2cc(-c3noc(-c4cc(OC)cc(OC)c4)n3)ccc21	894 s
CC(=O)Nc1ccc(OC(=O)c2ccccc2OC(C)=O)cc1	853 s
NC(=O)c1cc[nH]c1C1CCCN(Cc2ccc(Br)o2)C1 (configuration not stated)	594 s
CCOc1cccc(-c2noc(Cn3c(=O)n(CC)c(=O)c4ccccc43)n2)c1	983 s
Cc1ccc(S(=O)(=O)N2CCc3nc[nH]c3C2)cc1	591 s
COCc1nnc(C(=O)Nc2ccc(C(=O)NCCc3c[nH]c4ccc(C)cc34)cc2)s1	844 s
COc1cccc(C(=O)Nc2ccc(CC(=O)NCC(F)(F)F)cc2)c1OC	764 s
CCn1ccc(NC(=O)Nc2cc(C)ccc2C)n1	869 s
Cc1cc(C)cc(NS(=O)(=O)c2c[nH]c3ncccc23)c1	758 s

Results, then the compound that gave them:

RP-LC retention time	Structure (SMILES)
876 s	COc1ccc(CNC(=O)C2CCCN(c3ccc(=O)n(-c4cccc(Cl)c4)n3)C2)c(OC)c1 (configuration not stated)
836 s	COCCCNC(=O)C1c2ccccc2C(=O)N(C2CCCC2)C1c1cccs1 (configuration not stated)
560 s	COc1ccc2nc(NC3=NCN(Cc4cccnc4)CN3)nc(C)c2c1
708 s	O=C(c1ccc(Cl)c(Cl)c1)N1CCN(Cc2nncn2C2CCCCC2)CC1
770 s	CCCn1cc(-c2nc(-c3cccnc3)no2)c(=O)c2cc(F)ccc21
674 s	C=CCNC(=O)C1CCCN(c2ncnc3c2oc2ccccc23)C1 (configuration not stated)
852 s	COc1ccc(C)cc1NC(=O)Cn1c(=O)c(CCC(=O)NCC(C)C)nc2ccccc21
605 s	Cc1nc2ccc(C(=O)N3CCCCCC3)cc2nc1C
806 s	CCCCNC(=O)C1Cc2cc(S(=O)(=O)N3CCCCC3)ccc2N1C(C)=O (configuration not stated)
973 s	COc1ccc(N2CC(c3nc(-c4cccc(Cl)c4)no3)CC2=O)cc1 (configuration not stated)
699 s	Cc1nc2cc(N3CCC(C(=O)NCc4ccc5c(c4)OCO5)CC3)cnc2nc1C
670 s	COCc1noc([C@@H]2CN(C(=O)CC3CCCC3)C[C@H]2CO)n1
855 s	CC(Cc1ccco1)NC(=O)c1nc(Nc2ccc(F)cc2)c2ccccc2n1 (configuration not stated)
835 s	Cc1cccc(CN2N=C(C(=O)N3CCOCC3)S(=O)(=O)c3ccc(C)cc32)c1
1080 s	Cc1cc(C)c2c(N3CCCC3)nc(C(=O)N3CCN(c4ccccn4)CC3)nc2n1
700 s	CC1(C)CC(=O)c2cn(-c3ccccc3)c(=O)c(C(=O)Nc3cccnc3)c2C1
872 s	COCCNC(=O)c1cc2c(n(-c3ccc(C(C)C)cc3)c1=O)CCCC2=O
1090 s	CCOC(=O)c1nc(Nc2ccc(C(=O)OCC(C)C)cc2)c2ccccc2n1
942 s	CC(C)NC(=O)N(CC(=O)N1CCc2sccc2C1COc1cccc(F)c1)C1CC1 (configuration not stated)
834 s	CC1CCCN(c2ccn3c(=O)n(CC(=O)Nc4ccc(F)c(Cl)c4)nc3n2)C1 (configuration not stated)
602 s	O=C(c1ccc2ccccc2n1)N1CCN(c2cc(-c3cccnc3)[nH]n2)CC1
963 s	CCOc1ccc(NC(=O)C2CCN(S(=O)(=O)c3c(C)nn(-c4ccccc4)c3C)CC2)cc1
677 s	CNC(=O)c1nsc(C(=O)OC)c1N
576 s	CCn1cc(S(=O)(=O)N2CC(Cn3c(C)cnc3-c3cccnc3)C2)cn1
871 s	O=C(NCc1cccc(F)c1)c1ccc(-c2ccsc2)nc1
798 s	CCc1nc(OCC(=O)NCc2ccc(C)cc2)c2ccccc2n1
678 s	CCSc1nnc(NC(=O)Cc2csc(NC(=O)c3cnccn3)n2)s1
739 s	c1ccc(-c2nc(-c3cccc(-c4ccn[nH]4)c3)no2)nc1
